Reference: patent publication US20120015032A1, “COMBINATION PREPARATION COMPRISING INHIBITOR OF HMG-COA REDUCTASE AND ASPIRIN AND METHOD FOR MANUFACTURING THE SAME” (HANALL PHARMACEUTICAL COMPANY, LTD., priority 2007, published 2012)

How the values were obtained:
Assay type in all cases: in vivo, rat
SHR rats = experiment: Test of antihypertensive effect in rats; conditions: light, p.o.
Description: (§1) Animal tests supporting the effects of the present invention were carried out as described in Table 10 below. [table]

SD rats = experiment: Test of antiplatelet aggregation effect (bleeding time) in rats
Description: as §1

rats = experiment: Test of comparison of gastric mucosal injury in rats (index of gastric mucosal bleeding); conditions: Table 16
[1] = Day 0, simvastatin 5 mg/kg alone
[2] = Day 5, simvastatin 5 mg/kg alone

What does the source list for `CCC(C)(C)C(=O)O[C@H]1C[C@@H](C)C=C2C=C[C@H](C)[C@H](CC[C@@H]3C[C@@H](O)CC(=O)O3)[C@H]21` [simvastatin]?
Diastolic blood pressure (DBP) (SHR rats; [1]): 124.3 ± 15.5; Mean blood pressure (MBP) (SHR rats; [1]): 139.0 ± 12.4; Systolic blood pressure (SBP) (SHR rats; [1]): 171.0 ± 8.7; Diastolic blood pressure (DBP) (SHR rats; [2]): 125.1 ± 17.1; Mean blood pressure (MBP) (SHR rats; [2]): 131.3 ± 12.6; Systolic blood pressure (SBP) (SHR rats; [2]): 173.9 ± 9.2; Bleeding time (SD rats; SD rats, simvastatin alone, light conditions, p.o., 2 hrs after administration): 782 ± 429 s

For `CC(=O)Oc1ccccc1C(=O)O` [aspirin], which “platelet aggregation inhibitory effect” value (SD rats; rats, bleeding time, summary of Table 12) is on record?
Its value is “increased in proportion to the dose of aspirin”.

What about the “occurrence of gastrointestinal disturbance” value (rats) of the same compound?
Its value is “increased in proportion to an increase in the dose of aspirin”.
